Values quoted from earlier work, collected in patent publication US11517526B2, “Stabilised hypochlorous solutions and their medical cosmetic uses” (Clinical Health Technologies Ltd, priority 2019, dated 2022).

How the values were obtained:
[1] = natural state, unless stabilised

Which half-life [1] does the source give for OCl [hypochlorous acid (HOCl), hypochlorous acid] here?
Its half-life is 48 h.

What about the “effectiveness as an antimicrobial relative to hypochlorite (OCl−)” value (microbes) of the same molecule?
Its value is 80-100 times.
